We go through one compound from PMC1568117 (Environmental Health Perspectives, 1989).

For one data set, the system named is B6C3F1 mice. The following applies: week 91.
For the next data set, the system named is F344/N rats. Conditions: week 92.

For `c1ccccc1` [benzene], the “Survival in all groups” value in the data set with B6C3F1 mice and in the data set with F344/N rats was “greater than 60%” each time.
